Experiments:
Assay in all cases: drug sensitivity score (DSS) (DSS (dimensionless)); higher = more sensitive (stronger drug response)
FIMM-PDC1 = patient-derived ovarian cancer cells; conditions: genetic perturbation: none (patient-derived cell culture)
Method in brief: (§1)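 Cells, either patient-derived cultures or ovarian cancer cell lines given 100 ng/ml doxycycline for no less than three days to induce shRNA, went into 384-well plates at 1 000 – 1 500 per well over drugs pre-plated in five concentrations across a 10,000-fold range. The plates were held for three days at 37 °C with 5.0 % CO2. Cell viability was then taken from CellTiter-Glo luminescence on a PHERAstar FS. For each drug, a drug sensitivity score from its dose-response curve was obtained by a method described earlier.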

FIMM-PDC2 = patient-derived ovarian cancer cells; conditions: genetic perturbation: none (patient-derived cell culture)
Method in brief: as §1

FIMM-PDC3 = patient-derived ovarian cancer cells; conditions: genetic perturbation: none (patient-derived cell culture)
Method in brief: as §1

FIMM-PDC4 = patient-derived ovarian cancer cells; conditions: genetic perturbation: none (patient-derived cell culture)
Method in brief: as §1

FIMM-PDC5 = patient-derived ovarian cancer cells; conditions: genetic perturbation: none (patient-derived cell culture)
Method in brief: as §1

FIMM-PDC6 = patient-derived ovarian cancer cells; conditions: genetic perturbation: none (patient-derived cell culture)
Method in brief: as §1

FIMM-PDC7 = patient-derived ovarian cancer cells; conditions: genetic perturbation: none (patient-derived cell culture)
Method in brief: as §1

JHOS2 = tested on: JHOS2
Method in brief: as §1

Kuramochi = tested on: Kuramochi
Method in brief: as §1

OVSAHO = tested on: OVSAHO
Method in brief: as §1

[1] = genetic perturbation: DOX-induced PTK7 shRNA knockdown
[2] = genetic perturbation: DOX-induced control shRNA

SMILES	drug sensitivity score (FIMM-PDC1)	drug sensitivity score (FIMM-PDC2)	drug sensitivity score (FIMM-PDC3)	drug sensitivity score (FIMM-PDC4)	drug sensitivity score (FIMM-PDC5)	drug sensitivity score (FIMM-PDC6)	drug sensitivity score (FIMM-PDC7)	drug sensitivity score (JHOS2; [1])	drug sensitivity score (JHOS2; [2])	drug sensitivity score (Kuramochi; [1])	drug sensitivity score (Kuramochi; [2])	drug sensitivity score (OVSAHO; [1])	drug sensitivity score (OVSAHO; [2])
CC(C)[C@@H](CS(=O)(=O)C(C)C)N1C(=O)[C@@](C)(CC(=O)O)C[C@H](c2cccc(Cl)c2)[C@H]1c1ccc(Cl)cc1 [AMG-232]	< 0	< 0	< 0	7.1	20.3	14.2	15	< 0	< 0	< 0	< 0	< 0	< 0
CO[C@H]1CC[C@H](N2C(=O)CNc3ncc(-c4ccc(C(C)(C)O)nc4)nc32)CC1 [CC-223]	3.2	4.7	3.5	5.9	10.3	5.3	9.5	3.3	3.3	5.1	4.6	6.6	4.9
C[C@@H]1COCCN1c1cc(C2([S@](C)(=N)=O)CC2)nc(-c2cc[nH]c3nccc2-3)n1 [AZD6738]	12.7	9.5	13	8.7	10.4	11	8.6	6	3.6	6.5	4.5	6.2	5.5
CN[C@@H](C)C(=O)N[C@H]1CN(C(=O)CC(C)C)CC[C@H]2CC[C@@H](C(=O)NC(c3ccccc3)c3ccccc3)N2C1=O [AT-406]	7.9	10.5	10.8	0.9	1.5	5.3	0.6	16.5	10.2	1.1	0.3	4.3	< 0
CC1(C)OCCn2c1nc1c(N3CCOCC3)nc(-c3cnc(N)nc3)nc12 [GDC-0084]	7.65	10.3	7.9	13.1	17	13.3	14.2	7	8.5	10.2	6.3	10.2	9.7
C=CCn1c(=O)c2cnc(Nc3ccc(N4CCN(C)CC4)cc3)nc2n1-c1cccc(C(C)(C)O)n1 [AZD1775]	21.6	12.9	17	10.4	19	4	8.8	8.6	8.3	10.3	9.9	16.3	9.6
O=C1CCc2c(Oc3ccc4c(c3)[C@@H]3[C@H](O4)[C@H]3c3nc4cc(C(F)(F)F)ccc4[nH]3)ccnc2N1 [BGB-283]	1.05	3.4	4.1	7.7	10.4	7.3	5.8	1.8	6.4	3.6	1.7	2.4	4
Cc1cc(OCc2nnc(SC3CCCC3)n2-c2cccnc2)ccc1-c1ccc(S(C)(=O)=O)cc1 [NMS-873]	7.55		9.4	8.3	5.5	9.1	5	7.7	5.9	8.15	6.2	5.1	7.5
Cc1c2oc3c(C)ccc(C(=O)N[C@@H]4C(=O)N[C@H](C(C)C)C(=O)N5CCC[C@H]5C(=O)N(C)CC(=O)N(C)[C@@H](C(C)C)C(=O)O[C@@H]4C)c3nc-2c(C(=O)N[C@@H]2C(=O)N[C@H](C(C)C)C(=O)N3CCC[C@H]3C(=O)N(C)CC(=O)N(C)[C@@H](C(C)C)C(=O)O[C@@H]2C)c(N)c1=O [Dactinomycin]	23.6		26.5	23.1	25.2	22.1	26	21.1	23.4	23.3	19.9	23.1	18
CCNC(=O)c1noc(-c2cc(C(C)C)c(O)cc2O)c1-c1ccc(CN2CCOCC2)cc1 [Luminespib]	13.9		14.5	26	22.8	15.3	19	15.6	12.9	13.7	4.1	< 0	11.3
COc1cc(Nc2c(C#N)cnc3cc(OCCCN4CCN(C)CC4)c(OC)cc23)c(Cl)cc1Cl [Bosutinib]	7.4		10.5	13.7	14.3	12.3	6.5	9.3	10.9	10.6	6.4	12.1	8.7
CC[C@@H]1C(=O)N(C)c2cnc(Nc3ccc(C(=O)N[C@H]4CC[C@H](N5CCN(CC6CC6)CC5)CC4)cc3OC)nc2N1C(C)C [Volasertib]	3.9		7	6	14.8	0.9	4.2	14.2	4.7	9.65	2.4	6.4	6.4
